Assay type in all cases: cell-based, human
For test [1], the system named is KRAS G12C mutant MIA PaCa-2 cells. The test can be described thus: Cell proliferation inhibition experiment, 3D spheroid, CellTiter-Glo, MIA PaCa-2. Conditions: 3D cell model in 384-well spheroid plate, 5 days, CellTiter-Glo, read-out: MIA-PaCa2 IC50. A digest of the protocol: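 Luminescent ATP read-out (CellTiter-Glo) after 5-day compound treatment of spheroids formed overnight from 200 MIA PaCa-2 cells/well; compounds in 3.16-fold series, 0.1% DMSO final. IC50 derived by four-parameter fit of percent inhibition, normalized to DMSO control and medium blank.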
Background: In ATP-based viability assays light output follows the ATP content of the culture.

The subject of test [2] is KRAS G12C mutant NCI-H358 cells. The test can be described thus: Cell proliferation inhibition experiment, 3D spheroid, CellTiter-Glo, NCI-H358. The following applies: Homo sapiens, NCI-H358, 120 h, NCI-H358 (KRAS G12C mutant) 3D spheroid, 5 days with compound, CellTiter-Glo; read-out: H358 IC50. Put shortly:
(§1)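 3D spheroid format; 800 H358 / 400 A549 cells/well, 2% FBS. Cpd 3.16-fold series, 0.1% DMSO, 5 d. Readout CellTiter-Glo luminescence; IR% vs DMSO control and medium blank; 4-parameter IC50.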

The subject of test [3] is A549 cells (KRAS G12S mutant). The test can be described thus: Cell proliferation inhibition experiment, 3D spheroid, CellTiter-Glo, A549. Conditions: A549 (KRAS G12S mutant) 3D spheroid, 5 days with compound, CellTiter-Glo, read-out: A549 IC50. Put shortly: as §1
Where [4] appears, read: Homo sapiens, MIA PaCa-2, 120 h.

Molecules are shown by their SMILES. Where two headings read alike, the source gives them in different places. Bounds are passed on as bounds.

In general, IC50 refers to the concentration that gives 50% inhibition.

As to `C=CC(=O)N1CCN2C(=O)c3c(N4CCN(C(=O)CC)C[C@@H]4C)nc(-c4c(O)cccc4F)c(Cl)c3OC[C@H]2C1` [Z316-1, (6aR)-8-acryloyl-4-chloro-3-(2-fluoro-6-hydroxyphenyl)-1-((S)-2-methyl-4-propionylpiperazin-1-yl)-6,6a,7,8,9,10-hexahydro-12H-pyrazino[2,1-c]pyrido[3,4-f][1,4]oxazepin-12-one], the IC50 is 0.0022 µM in test [1] (setting [4]); 0.0013 µM in test [2]; greater than 30 µM in test [3] (Homo sapiens, A549, 120 h).
As to `C=CC(=O)N1CCN2C(=O)c3c(N4CCN(S(C)(=O)=O)C[C@@H]4C)nc(-c4c(O)cccc4F)c(Cl)c3OC[C@H]2C1` [Z318-1, (6aR)-8-acryloyl-1-((S)-2-methyl-4-(methylsulfonyl)piperazin-1-yl)-4-chloro-3-(2-fluoro-6-hydroxyphenyl)-6,6a,7,8,9,10-hexahydro-12H-pyrazino[2,1-c]pyrido[3,4-f][1,4]oxazepin-12-one], the IC50 in test [1] (setting [4]) was found to be 0.0109 µM; in test [2], 0.0057 µM; in test [3] (Homo sapiens, A549, 120 h), 26.3 µM.
`C=CC(=O)N1CCN2C(=O)c3c(N4CCN(C(=O)C5CC5)C[C@@H]4C)nc(-c4c(O)cccc4F)c(Cl)c3OC[C@H]2C1` [Z320-1, (6aR)-8-acryloyl-4-chloro-1-((S)-4-(cyclopropanecarbonyl)-2-methylpiperazin-1-yl)-3-(2-fluoro-6-hydroxyphenyl)-6,6a,7,8,9,10-hexahydro-12H-pyrazino[2,1-c]pyrido[3,4-f][1,4]oxazepin-12-one]: the IC50 in test [1] (setting [4]) was found to be 0.0017 µM; in test [2], 0.0013 µM; in test [3] (Homo sapiens, A549, 120 h), 8.92 µM.
`C=CC(=O)N1CCN2C(=O)c3c(N4CCN(CC)C(C)(C)C4)nc(-c4c(O)cccc4F)c(Cl)c3OC[C@H]2C1` [Z322, (6aR)-8-actyloyl-4-chloro-3-(2-fluoro-6-hydroxyphenyl)-1-(4-ethyl-3,3-dimethylpiperazin-1-yl)-6,6a,7,8,9,10-hexahydro-12H-pyrazino[2,1-c]pyrido[3,4-f][1,4]oxazepin-12-one]: the IC50 in test [1] (setting [4]) was found to be 0.0063 µM; in test [2], 0.0045 µM; in test [3] (Homo sapiens, A549, 120 h), 10.7 µM.
For `C=CC(=O)N1CCN2C(=O)c3c(N4CC(N(C)C5COC5)CC4(C)C)nc(-c4c(O)cccc4F)c(Cl)c3OC[C@H]2C1` (stereo partly drawn) [Z326, (6aR)-8-acryloyl-4-chloro-1-(2,2-dimethyl-4-(methyl(oxetan-3-yl)amino)pyrrolidin-1-yl)-3-(2-fluoro-6-hydroxyphenyl)-6,6a,7,8,9,10-hexahydro-12H-pyrazino[2,1-c]pyrido[3,4-f][1,4]oxazepin-12-one], the IC50 was determined as 0.0009 µM in test [1] (setting [4]); 0.0007 µM in test [2]; 8.84 µM in test [3] (Homo sapiens, A549, 120 h).
In the case of `C=CC(=O)N1CCN2C(=O)c3c(N4CCN(C)C[C@@H]4C)nc(-c4nc(N)cc(C)c4C(F)(F)F)c(Cl)c3OC[C@H]2C1` [Z328-1, (R)-8-acryloyl-3-(6-amino-4-methyl-3-(trifluoromethyl)pyridin-2-yl)-4-chloro-1-((S)-2,4-dimethylpiperazin-1-yl)-6,6a,7,8,9,10-hexahydro-12H-pyrazino[2,1-c]pyrido[3,4-f][1,4]oxazepin-12-one], the IC50 in test [1] (setting [4]) stood at 0.0017 µM; in test [2] it was 0.0022 µM; in test [3] (Homo sapiens, A549, 120 h) it was 16.1 µM.
With `C=CC(=O)N1CCN2C(=O)c3c(N4CCC(N(C)C)C4(C)C)nc(-c4c(O)cccc4F)c(Cl)c3OC[C@H]2C1` (stereo partly drawn) [Z334, (6aR)-8-acryloyl-4-chloro-1-(3-(dimethylamino)-2,2-dimethylpyrrolidin-1-yl)-3-(2-fluoro-6-hydroxyphenyl)-6,6a,7,8,9,10-hexahydro-12H-pyrazino[2,1-c]pyrido[3,4-f][1,4]oxazepin-12-one], the IC50 in test [1] (setting [4]) turned out to be 0.011 µM; in test [2], 0.009 µM; in test [3] (Homo sapiens, A549, 120 h) it was 8.55 µM.
Taken in the same sequence, the figures for `C=CC(=O)N1CCN2C(=O)c3c(N4CC(C#N)CC4(C)C)nc(-c4c(O)cccc4F)c(F)c3OC[C@H]2C1` (stereo partly drawn) [Z335] were 0.018 µM, 0.011 µM and greater than 30 µM.
Turning to `C=CC(=O)N1CCN2C(=O)c3c(N4CC[C@@H](OC)[C@@H]4C)nc(-c4c(O)cccc4F)c(Cl)c3OC[C@H]2C1` [Z338-1, (6aR)-8-acryloyl-4-chloro-3-(2-fluoro-6-hydroxyphenyl)-1-((2S,3R)-3-methoxy-2-methylpyrrolidin-1-yl)-6,6a,7,8,9,10-hexahydro-12H-pyrazino[2,1-c]pyrido[3,4-f][1,4]oxazepin-12-one], the IC50 is 0.009 µM in test [1] (setting [4]); 0.006 µM in test [2]; 12.3 µM in test [3] (Homo sapiens, A549, 120 h).
For `C=CC(=O)N1CCN2C(=O)c3c(N4CCN(C)C[C@@H]4C)nc(-c4c(F)ccc(Cl)c4O)c(Cl)c3OC[C@H]2C1` [Z342, (6aR)-8-acryloyl-4-chloro-3-(3-chloro-6-fluoro-2-hydroxyphenyl)-1-((S)-2,4-dimethylpiperazin-1-yl)-6,6a,7,8,9,10-hexahydro-12H-pyrazino[2,1-c]pyrido[3,4-f][1,4]oxazepin-12-one], the IC50 in test [1] (setting [4]) is 0.016 µM; in test [2], 0.0095 µM; in test [3] (Homo sapiens, A549, 120 h), 3.06 µM.
The corresponding values for `C=CC(=O)N1CCN2C(=O)c3c(N4CCN(C)C[C@@H]4C)nc(-c4c(O)ccc(Cl)c4F)c(Cl)c3OC[C@H]2C1` [Z343, (6aR)-8-acryloyl-4-chloro-3-(3-chloro-2-fluoro-6-hydroxyphenyl)-1-((S)-2,4-dimethylpiperazin-1-yl)-6,6a,7,8,9,10-hexahydro-12H-pyrazino[2,1-c]pyrido[3,4-f][1,4]oxazepin-12-one] are 0.018 µM, 0.0104 µM and 6.8 µM.
Taken in the same sequence, the figures for `C=CC(=O)N1CCN2C(=O)c3c(N4CC(N5CCOCC5)CC4(C)C)nc(-c4c(O)cccc4F)c(Cl)c3OC[C@H]2C1` (stereo partly drawn) [Z344, (6aR)-8-acryloyl-4-chloro-1-((2,2-dimethyl-4-morpholinopyrrolidin-1-yl))-3-(2-fluoro-6-hydroxyphenyl)-6,6a,7,8,9,10-hexahydro-12H-pyrazino[2,1-c]pyrido[3,4-f][1,4]oxazepin-12-one] were 0.003 µM, 0.0013 µM and 3.72 µM.
For the molecule `C=CC(=O)N1CCN2C(=O)c3c(N4CC[C@H](OC)[C@@H]4C)nc(-c4c(O)cccc4F)c(Cl)c3OC[C@H]2C1` [Z347-1, (6aR)-8-acryloyl-4-chloro-3-(2-fluoro-6-hydroxyphenyl)-1-((2S,3S)-3-methoxy-2-methylpyrrolidin-1-yl)-6,6a,7,8,9,10-hexahydro-12H-pyrazino[2,1-c]pyrido[3,4-f][1,4]oxazepin-12-one], the IC50 in test [1] (setting [4]) came out at 0.004 µM; in test [2], 0.0021 µM; in test [3] (Homo sapiens, A549, 120 h) it was 9.55 µM.
In the case of `C=CC(=O)N1CCN2C(=O)c3c(N4CCN(C)C[C@@H]4C)nc(-c4c(F)ccc(F)c4O)c(Cl)c3OC[C@H]2C1` [Z356, (6aR)-8-acryloyl-4-chloro-3-(3,6-difluoro-2-hydroxyphenyl)-1-((S)-2,4-dimethylpiperazin-1-yl)-6,6a,7,8,9,10-hexahydro-12H-pyrazino[2,1-c]pyrido[3,4-f][1,4]oxazepin-12-one], the IC50 in test [1] (setting [4]) came to 0.029 µM; in test [2], 0.02 µM; in test [3] (Homo sapiens, A549, 120 h), 28.3 µM.
As to `C=CC(=O)N1CCN2C(=O)c3c(N4C[C@@H](N(C)CCOC)C[C@@H]4C)nc(-c4c(O)cccc4F)c(Cl)c3OC[C@H]2C1` [Z358-1], the IC50 in test [1] (setting [4]) is 0.0072 µM; in test [2], 0.0048 µM; in test [3] (Homo sapiens, A549, 120 h) it was greater than 10 µM.
The corresponding values for `C=CC(=O)N1CCN2C(=O)c3c(N4C[C@@H](OC)C[C@@H]4C)nc(-c4c(O)cccc4F)c(F)c3OC[C@H]2C1` [Z359-1, (6aR)-8-actyloyl-4-fluoro-3-(2-fluoro-6-hydroxyphenyl)-1-((2S,4S)-4-methoxy-2-methylpyrrolidin-1-yl)-6,6a,7,8,9,10-hexahydro-12H-pyrazino[2,1-c]pyrido[3,4-f][1,4]oxazepin-12-one] are 0.0176 µM, 0.0083 µM and 12.2 µM.
Take `C=CC(=O)N1CCN2C(=O)c3c(N4CCN(C)C(C)C4C)nc(-c4c(O)cccc4F)c(Cl)c3OC[C@H]2C1` (stereo partly drawn) [Z369, (6aR)-8-acryloyl-4-chloro-3-(2-fluoro-6-hydroxyphenyl)-1-(2,3,4-trimethylpiperazin-1-yl)-6,6a,7,8,9,10-hexahydro-12H-pyrazino[2,1-c]pyrido[3,4-f][1,4]oxazepin-12-one]: the IC50 in test [1] is 0.006 µM; in test [2], 0.0036 µM; in test [3], 27.1 µM.
